The source made the active and inactive calls. No rule for the calls is given here.
System: CCRIS mutagenicity, Ames/micronucleus/aberration tests
Assay: CCRIS mutagenicity studies
[1] = Test System: AMES SALMONELLA TYPHIMURIUM, Strain/Indicator: TA98, Metabolic Activation: NONE, Method: STANDARD PLATE
[2] = Test System: AMES SALMONELLA TYPHIMURIUM, Strain/Indicator: TA100, Metabolic Activation: NONE, Method: STANDARD PLATE
[3] = Test System: AMES SALMONELLA TYPHIMURIUM, Strain/Indicator: TA1535, Metabolic Activation: NONE, Method: STANDARD PLATE
[4] = Test System: AMES SALMONELLA TYPHIMURIUM, Strain/Indicator: TA100, Metabolic Activation: NONE, Method: PREINCUBATION
[5] = Test System: AMES SALMONELLA TYPHIMURIUM, Strain/Indicator: TA1535, Metabolic Activation: NONE, Method: PREINCUBATION

O=c1[nH]cc(CO)c(=O)[nH]1
mutagenic call (Test System: CHINESE HAMSTER V-79, Strain/Indicator: V-79 (HPRT)/6-THIOGUANINE, Metabolic Activation: NONE, Method: STANDARD PLATE): inactive; negative

Oc1cc2c3ccccc3ccc2c2ccccc12
mutagenic call [1]: inactive; negative
mutagenic call (Test System: AMES SALMONELLA TYPHIMURIUM, Strain/Indicator: TA98, Metabolic Activation: RAT, LIVER, S-9, AROCLOR 1254, Method: STANDARD PLATE): inactive; negative
mutagenic call [2]: inactive; negative

C=C[Si](C)(Cl)Cl
mutagenic call (Test System: AMES SALMONELLA TYPHIMURIUM, Strain/Indicator: TA98, Metabolic Activation: HAMSTER, LIVER, S-9, AROCLOR 1254 (10%), Method: STANDARD PLATE): inactive; negative
mutagenic call [1]: inactive; negative
mutagenic call (Test System: AMES SALMONELLA TYPHIMURIUM, Strain/Indicator: TA98, Metabolic Activation: RAT, LIVER, S-9, AROCLOR 1254 (10%), Method: STANDARD PLATE): inactive; negative
mutagenic call (Test System: AMES SALMONELLA TYPHIMURIUM, Strain/Indicator: TA100, Metabolic Activation: HAMSTER, LIVER, S-9, AROCLOR 1254 (10%), Method: STANDARD PLATE): inactive; negative
mutagenic call [2]: inactive; negative
mutagenic call (Test System: AMES SALMONELLA TYPHIMURIUM, Strain/Indicator: TA100, Metabolic Activation: RAT, LIVER, S-9, AROCLOR 1254 (10%), Method: STANDARD PLATE): inactive; negative
mutagenic call (Test System: AMES SALMONELLA TYPHIMURIUM, Strain/Indicator: TA1535, Metabolic Activation: HAMSTER, LIVER, S-9, AROCLOR 1254 (10%), Method: STANDARD PLATE): active; positive
mutagenic call [3]: inactive; negative
mutagenic call (Test System: AMES SALMONELLA TYPHIMURIUM, Strain/Indicator: TA1535, Metabolic Activation: RAT, LIVER, S-9, AROCLOR 1254 (10%), Method: STANDARD PLATE): inactive; negative
mutagenic call (Test System: AMES SALMONELLA TYPHIMURIUM, Strain/Indicator: TA1537, Metabolic Activation: HAMSTER, LIVER, S-9, AROCLOR 1254 (10%), Method: STANDARD PLATE): inactive; negative
mutagenic call (Test System: AMES SALMONELLA TYPHIMURIUM, Strain/Indicator: TA1537, Metabolic Activation: NONE, Method: STANDARD PLATE): inactive; negative
mutagenic call (Test System: AMES SALMONELLA TYPHIMURIUM, Strain/Indicator: TA1537, Metabolic Activation: RAT, LIVER, S-9, AROCLOR 1254 (10%), Method: STANDARD PLATE): inactive; negative
mutagenic call (Test System: AMES SALMONELLA TYPHIMURIUM, Strain/Indicator: TA1538, Metabolic Activation: HAMSTER, LIVER, S-9, AROCLOR 1254 (10%), Method: STANDARD PLATE): inactive; negative
mutagenic call (Test System: AMES SALMONELLA TYPHIMURIUM, Strain/Indicator: TA1538, Metabolic Activation: NONE, Method: STANDARD PLATE): inactive; negative
mutagenic call (Test System: AMES SALMONELLA TYPHIMURIUM, Strain/Indicator: TA1538, Metabolic Activation: RAT, LIVER, S-9, AROCLOR 1254 (10%), Method: STANDARD PLATE): inactive; negative
mutagenic call (Test System: MOUSE LYMPHOMA, Strain/Indicator: L5178Y (TK+/TK-), Metabolic Activation: NONE, Method: SUSPENSION/PLATE): inactive; negative. reevaluation of results: negative
mutagenic call (Test System: MOUSE LYMPHOMA, Strain/Indicator: L5178Y (TK+/TK-), Metabolic Activation: RAT, LIVER, S-9, AROCLOR 1254, Method: SUSPENSION/PLATE): inactive; negative. reevaluation of results: inconclusive

CCCNNCCC
mutagenic call (Test System: AMES SALMONELLA TYPHIMURIUM, Strain/Indicator: TA100, Metabolic Activation: NONE, Method: PREINCUBATION (11 HR GROWTH PERIOD FOR BACTERIA)): active; positive
mutagenic call (Test System: AMES SALMONELLA TYPHIMURIUM, Strain/Indicator: TA100, Metabolic Activation: RAT, LIVER, S-9, PCB, Method: PREINCUBATION (11 HR GROWTH PERIOD FOR BACTERIA)): inactive; negative
mutagenic call (Test System: AMES SALMONELLA TYPHIMURIUM, Strain/Indicator: TA102, Metabolic Activation: NONE, Method: PREINCUBATION (5 OR 7 HR GROWTH PERIOD FOR BACTERIA)): active; positive
mutagenic call (Test System: AMES SALMONELLA TYPHIMURIUM, Strain/Indicator: TA102, Metabolic Activation: RAT, LIVER, S-9, PCB, Method: PREINCUBATION (5 OR 7 HR GROWTH PERIOD FOR BACTERIA)): active; positive

[S]1[S][SbH][S][S][SbH]1
mutagenic call (Test System: CHINESE HAMSTER OVARY, Strain/Indicator: CHO (HGPRT)/6-THIOGUANINE, Metabolic Activation: NONE): inactive; negative
mutagenic call (Test System: CHINESE HAMSTER OVARY, Strain/Indicator: CHO (HGPRT)/6-THIOGUANINE, Metabolic Activation: RAT, LIVER, S-9, AROCLOR 1254): inactive; negative

c1ccc(CC2CO2)cc1 (stereo not given)
mutagenic call [4]: active; positive
mutagenic call [2]: active; positive
mutagenic call [5]: active; positive
mutagenic call [3]: active; positive

CCc1cccc2cccnc12
mutagenic call (Test System: AMES SALMONELLA TYPHIMURIUM, Strain/Indicator: TA100, Metabolic Activation: S-9, Method: PREINCUBATION): active; positive

CCCCCCCOc1ccccc1NC(=O)OC(C)CN(CC)CC (stereo not given)
mutagenic call (Test System: AMES SALMONELLA TYPHIMURIUM, Strain/Indicator: TA98, Metabolic Activation: MOUSE, LIVER, S-9, AROCLOR 1254, Method: PREINCUBATION): inactive; negative
mutagenic call (Test System: AMES SALMONELLA TYPHIMURIUM, Strain/Indicator: TA98, Metabolic Activation: NONE, Method: PREINCUBATION): inactive; negative
mutagenic call (Test System: AMES SALMONELLA TYPHIMURIUM, Strain/Indicator: TA100, Metabolic Activation: MOUSE, LIVER, S-9, AROCLOR 1254, Method: PREINCUBATION): inactive; negative
mutagenic call [4]: inactive; negative
mutagenic call (Test System: AMES SALMONELLA TYPHIMURIUM, Strain/Indicator: TA1535, Metabolic Activation: MOUSE, LIVER, S-9, AROCLOR 1254, Method: PREINCUBATION): inactive; negative
mutagenic call [5]: inactive; negative
mutagenic call (Test System: AMES SALMONELLA TYPHIMURIUM, Strain/Indicator: TA1538, Metabolic Activation: MOUSE, LIVER, S-9, AROCLOR 1254, Method: PREINCUBATION): inactive; negative
mutagenic call (Test System: AMES SALMONELLA TYPHIMURIUM, Strain/Indicator: TA1538, Metabolic Activation: NONE, Method: PREINCUBATION): inactive; negative
mutagenic call (Test System: AMES SALMONELLA TYPHIMURIUM, Strain/Indicator: TA1978, Metabolic Activation: MOUSE, LIVER, S-9, AROCLOR 1254, Method: PREINCUBATION): inactive; negative
mutagenic call (Test System: AMES SALMONELLA TYPHIMURIUM, Strain/Indicator: TA1978, Metabolic Activation: NONE, Method: PREINCUBATION): inactive; negative
mutagenic call (Test System: E. COLI, Strain/Indicator: CM611 UVRA/LEXA, Metabolic Activation: MOUSE, LIVER, S-9, AROCLOR 1254, Method: PREINCUBATION): inactive; negative
mutagenic call (Test System: E. COLI, Strain/Indicator: CM611 UVRA/LEXA, Metabolic Activation: NONE, Method: PREINCUBATION): inactive; negative
mutagenic call (Test System: E. COLI, Strain/Indicator: WP2, Metabolic Activation: MOUSE, LIVER, S-9, AROCLOR 1254, Method: PREINCUBATION): inactive; negative
mutagenic call (Test System: E. COLI, Strain/Indicator: WP2, Metabolic Activation: NONE, Method: PREINCUBATION): inactive; negative
mutagenic call (Test System: E. COLI, Strain/Indicator: WP2 UVRA, Metabolic Activation: MOUSE, LIVER, S-9, AROCLOR 1254, Method: PREINCUBATION): inactive; negative
mutagenic call (Test System: E. COLI, Strain/Indicator: WP2 UVRA, Metabolic Activation: NONE, Method: PREINCUBATION): inactive; negative
mutagenic call (Test System: E. COLI, Strain/Indicator: WP67 UVRA/POLA, Metabolic Activation: MOUSE, LIVER, S-9, AROCLOR 1254, Method: PREINCUBATION): inactive; negative
mutagenic call (Test System: E. COLI, Strain/Indicator: WP67 UVRA/POLA, Metabolic Activation: NONE, Method: PREINCUBATION): inactive; negative
